Patent publication US20250387366A1, “TOPICAL OCULAR DELIVERY OF CROMAKALIM” (QLARIS BIO, INC., priority 2022, published 2025)
Converted amounts (≈) assume the structure as drawn. Like-named read-outs stand apart in the source and are kept apart here.

Key:
KATP channels = conditions: in the presence of ATP (Brayden et al. 1991); cited from earlier work
[1] = test system: patients with primary open-angle glaucoma; conditions: Phase 2; cited from earlier work
[2] = reported by SmithKline Beecham 1993 (Hamilton et al.); cited from earlier work
[3] = Toxicokinetics of levcromakalim in plasma, BID T.O. bilateral formulation 3d for 28 days in rabbits (Example 12, Table 11); type: in vivo, rabbit; conditions: for AUC(0-t) / Cmax / Tmax / half-life: DB, rabbit, plasma, topical or ocular; for tlast: in h (unit assumed)
Description: Plasma concentrations of levcromakalim were evaluated in DB rabbits after twice a day (BID) oculus uterque (OU, both eyes) topical ophthalmic (T.O.) administration of formulation 3d for 28 days at dose levels of 0, 0.012, 0.03, and 0.06 mg/eye/dose.
Plasma concentrations of levcromakalim were evaluated in DB rabbits after BID OU T.O. administration of three concentrations of formulation 3d at dose levels of 0, 0.012, 0.03, and 0.06 mg/eye/dose (0, 0.024, 0.06, and 0.12 mg/eye/day respectively or 0.030% [1.0 mM], 0.075% [2.5 mM], or 0.15% [5 mM] respectively) for 28 days. Plasma was collected from 3 animals/dose group at pre-dose, 0.5, 1, 2, 3, 4, 6, and 12 hours post-first dose on Days 1 and 28.

[4] = Solubility limit of levcromakalim in water (literature); type: physicochemical; conditions: converted from 0.48 mg/ml
Source text: Therefore, the Chiang Lin tested material undoubtedly had insoluble material which would have a deleterious effect on the eye and nullify the results. The Hamilton article also stated that cromakalim is soluble in ethanol, DMSO and PEG, none of which would be acceptable as the topical ocular carrier for human administration.

[5] = female, 0.012 mg, females, 0.012 mg/eye/dose BID OU T.O. formulation 3d, Day 1, rabbit plasma
[6] = female, 0.012 mg, females, 0.012 mg/eye/dose BID OU T.O. formulation 3d, Day 28, rabbit plasma
[7] = female, 0.03 mg, females, 0.03 mg/eye/dose BID OU T.O. formulation 3d, Day 1, rabbit plasma
[8] = female, 0.03 mg, females, 0.03 mg/eye/dose BID OU T.O. formulation 3d, Day 28, rabbit plasma
[9] = female, 0.06 mg, females, 0.06 mg/eye/dose BID OU T.O. formulation 3d, Day 1, rabbit plasma
[10] = female, 0.06 mg, females, 0.06 mg/eye/dose BID OU T.O. formulation 3d, Day 28, rabbit plasma
[11] = females, 0.012 mg/eye/dose BID OU T.O. formulation 3d, Day 1, rabbit plasma
[12] = females, 0.012 mg/eye/dose BID OU T.O. formulation 3d, Day 28, rabbit plasma
[13] = females, 0.03 mg/eye/dose BID OU T.O. formulation 3d, Day 1, rabbit plasma
[14] = females, 0.03 mg/eye/dose BID OU T.O. formulation 3d, Day 28, rabbit plasma
[15] = females, 0.06 mg/eye/dose BID OU T.O. formulation 3d, Day 1, rabbit plasma
[16] = females, 0.06 mg/eye/dose BID OU T.O. formulation 3d, Day 28, rabbit plasma
[17] = male, 0.012 mg, males, 0.012 mg/eye/dose BID OU T.O. formulation 3d, Day 1, rabbit plasma
[18] = male, 0.012 mg, males, 0.012 mg/eye/dose BID OU T.O. formulation 3d, Day 28, rabbit plasma
[19] = male, 0.03 mg, males, 0.03 mg/eye/dose BID OU T.O. formulation 3d, Day 1, rabbit plasma
[20] = male, 0.03 mg, males, 0.03 mg/eye/dose BID OU T.O. formulation 3d, Day 28, rabbit plasma
[21] = male, 0.06 mg, males, 0.06 mg/eye/dose BID OU T.O. formulation 3d, Day 1, rabbit plasma
[22] = male, 0.06 mg, males, 0.06 mg/eye/dose BID OU T.O. formulation 3d, Day 28, rabbit plasma
[23] = males, 0.012 mg/eye/dose BID OU T.O. formulation 3d, Day 1, rabbit plasma
[24] = males, 0.012 mg/eye/dose BID OU T.O. formulation 3d, Day 28, rabbit plasma
[25] = males, 0.03 mg/eye/dose BID OU T.O. formulation 3d, Day 1, rabbit plasma
[26] = males, 0.03 mg/eye/dose BID OU T.O. formulation 3d, Day 28, rabbit plasma
[27] = males, 0.06 mg/eye/dose BID OU T.O. formulation 3d, Day 1, rabbit plasma
[28] = males, 0.06 mg/eye/dose BID OU T.O. formulation 3d, Day 28, rabbit plasma

For `CC1(C)Oc2ccc(C#N)cc2C(N2CCCC2=O)C1O` (centres unmarked) [Cromakalim], the “increase of open-state probability (Popen) of single KATP channels” value (KATP channels) is listed as “more than 9 fold”.
For `CC1(C)Oc2ccc(C#N)cc2[C@@H](N2CCCC2=O)[C@@H]1OP(=O)(O)O` [QLS-101], the “hyperemia (eye redness)” value [1] is listed as “no evidence of hyperemia” and the “safety and tolerability profile” value [1] is listed as “favorable safety and tolerability profile”.
In the case of `CC1(C)Oc2ccc(C#N)cc2[C@@H](N2CCCC2=O)[C@@H]1O` [levcromakalim], the “solubility limit in water” value [2] is listed as 480 µg/mL (≈ 1680 µM), the AUC(0-t) [3, 5] is listed as 0.57 ng·h/mL and the Cmax [3, 5] is listed as 0.64 ng/mL. For the same molecule, the Tmax [3, 5] was 1.67 h, the half-life [3, 5] was 1.84 h and the AUC(0-t) [3, 6] was 0.051 ng·h/mL. For the same molecule, the Cmax [3, 6] was 0.56 ng/mL, the Tmax [3, 6] was 0.33 h and the AUC(0-t) [3, 7] was 3.99 ng·h/mL. The Cmax [3, 7] was 1.75 ng/mL, the Tmax [3, 7] was 0.67 h and the half-life [3, 7] was 1.7 h. The AUC(0-t) [3, 8] was 3.58 ng·h/mL, the Cmax [3, 8] was 1.76 ng/mL and the Tmax [3, 8] was 0.67 h. It also gave a half-life [3, 8] of 2.19 h, an AUC(0-t) [3, 9] of 8.89 ng·h/mL and a Cmax [3, 9] of 2.85 ng/mL. It also gave a Tmax [3, 9] of 1 h, a half-life [3, 9] of 1.77 h and a Cmax [3, 10] of 2.06 ng/mL. For the same molecule, the Tmax [3, 10] was 1.2 h, the half-life [3, 10] was 1.97 h and the AUCtlast/Dose [3, 11] was 23.74 ng·h/mL/mg. The Cmax/Dose [3, 11] was 26.67 ng/mL/mg, the tlast [3, 11] was 2.00 and the AUCtlast/Dose [3, 12] was 21.11 ng·h/mL/mg. It also gave a Cmax/Dose [3, 12] of 23.21 ng/mL/mg, a tlast [3, 12] of 2.25 and an AUCtlast/Dose [3, 13] of 66.44 ng·h/mL/mg. The Cmax/Dose [3, 13] was 29.22 ng/mL/mg, the tlast [3, 13] was 3.67 and the AUCtlast/Dose [3, 14] was 59.64 ng·h/mL/mg. The Cmax/Dose [3, 14] was 29.41 ng/mL/mg, the tlast [3, 14] was 3.33 and the AUCtlast/Dose [3, 15] was 74.06 ng·h/mL/mg. It also gave a Cmax/Dose [3, 15] of 23.73 ng/mL/mg, a tlast [3, 15] of 4.80 and an AUCtlast [3, 16] of 6.05 ng·h/mL. For the same molecule, the AUCtlast/Dose [3, 16] was 50.39 ng·h/mL/mg, the Cmax/Dose [3, 16] was 17.13 ng/mL/mg and the tlast [3, 16] was 4.80. For the same molecule, the AUC(0-t) [3, 17] was 0.94 ng·h/mL, the Cmax [3, 17] was 0.77 ng/mL and the Tmax [3, 17] was 1.17 h. The AUC(0-t) [3, 18] was 0.14 ng·h/mL, the Cmax [3, 18] was 0.37 ng/mL and the Tmax [3, 18] was 0.33 h. It also gave an AUC(0-t) [3, 19] of 3.96 ng·h/mL, a Cmax [3, 19] of 2.26 ng/mL and a Tmax [3, 19] of 0.67 h. For the same molecule, the half-life [3, 19] was 1.28 h, the AUC(0-t) [3, 20] was 2.53 ng·h/mL and the Cmax [3, 20] was 1.68 ng/mL. The Tmax [3, 20] was 0.5 h, the half-life [3, 20] was 2.88 h and the AUC(0-t) [3, 21] was 5.64 ng·h/mL. For the same molecule, the Cmax [3, 21] was 2.61 ng/mL, the Tmax [3, 21] was 0.7 h and the half-life [3, 21] was 1.72 h. For the same molecule, the Cmax [3, 22] was 2.58 ng/mL, the Tmax [3, 22] was 0.6 h and the half-life [3, 22] was 2.29 h. It also gave an AUCtlast/Dose [3, 23] of 39.23 ng·h/mL/mg, a Cmax/Dose [3, 23] of 32.12 ng/mL/mg and a tlast [3, 23] of 1.50. For the same molecule, the AUCtlast/Dose [3, 24] was 5.78 ng·h/mL/mg, the Cmax/Dose [3, 24] was 15.40 ng/mL/mg and the tlast [3, 24] was 0.500. It also gave an AUCtlast/Dose [3, 25] of 66.06 ng·h/mL/mg, a Cmax/Dose [3, 25] of 28.88 ng/mL/mg and a tlast [3, 25] of 3.00. The AUCtlast/Dose [3, 26] was 42.11 ng·h/mL/mg, the Cmax/Dose [3, 26] was 28.05 ng/mL/mg and the tlast [3, 26] was 2.33. The AUCtlast/Dose [3, 27] was 47.04 ng·h/mL/mg, the Cmax/Dose [3, 27] was 21.78 ng/mL/mg and the tlast [3, 27] was 3.60. The AUCtlast [3, 28] was 6.11 ng·h/mL, the AUCtlast/Dose [3, 28] was 50.96 ng·h/mL/mg and the Cmax/Dose [3, 28] was 21.48 ng/mL/mg. For the same molecule, the tlast [3, 28] was 4.20 and the “solubility limit in water” value [4] was 0.048 % w/w.
